Experiments:
Assay type in all cases: biochemical
[1] = biological target: T1, Arabidopsis HPPD (Arabidopsis thaliana, UniProt P93836); assay: HPPD activity assay (homogentisic acid by HPLC), wildtype enzyme; conditions: Table 11, calculated from IC50 with Cheng-Prusoff equation, read-out: dissociation constant Ki
T1 construct: His6 (N); made in house; host or cells: E. coli BL21 (DE3)
T1 sequence (P93836 1-445): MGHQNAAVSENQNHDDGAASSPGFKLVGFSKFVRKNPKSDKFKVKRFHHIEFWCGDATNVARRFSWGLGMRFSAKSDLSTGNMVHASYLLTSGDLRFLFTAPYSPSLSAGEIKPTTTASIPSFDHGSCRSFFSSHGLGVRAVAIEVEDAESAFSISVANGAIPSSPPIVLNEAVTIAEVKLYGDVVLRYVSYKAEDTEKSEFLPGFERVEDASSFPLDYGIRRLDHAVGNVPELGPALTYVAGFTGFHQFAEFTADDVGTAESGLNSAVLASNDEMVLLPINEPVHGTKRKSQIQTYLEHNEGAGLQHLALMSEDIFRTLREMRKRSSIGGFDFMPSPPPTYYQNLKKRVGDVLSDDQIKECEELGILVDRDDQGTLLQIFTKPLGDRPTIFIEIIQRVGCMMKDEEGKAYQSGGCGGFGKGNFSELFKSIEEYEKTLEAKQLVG
Experimental: (§1) HPPD produces homogentisic acid and CO2 from 4-hydroxyphenylpyruvate (4-HPP) and O2. The activity assay for HPPD is based on the analysis of homogentisic acid by reversed phase HPLC.
(§2) The assay mixture can contain 150 mM potassium phosphate buffer pH 7.0, 50 mM L-ascorbic acid, 1 μM FeSO4 and 7 μg of purified enzyme in a total volume of 1 ml.
(§3) Inhibitors are dissolved in DMSO (dimethylsulfoxide) to a concentration of 20 mM or 0.5 mM, respectively. From this stock solution serial five-fold dilutions are prepared in DMSO, which are used in the assay. The respective inhibitor solution accounts for 1% of the assay volume. Thus, final inhibitor concentrations range from 200 μM to 2.5 nM or from 5 μM to 63 pM, respectively.
(§4) After a preincubation of 30 min the reaction is started by adding 4-HPP to a final concentration of 0.1 mM. The reaction is allowed to proceed for 120 min at room temperature. The reaction is stopped by addition of 100 μl of 4.5 M phosphoric acid.
The sample is extracted on an Oasis® HLB cartridge 3 cc/60 mg (Waters) that was preequilibrated with 63 mM phosphoric acid. L-ascorbic acid is washed out with 3 ml of 63 mM phosphoric acid. […]
(§5) 10 μl of the eluate is analyzed by reversed phase HPLC on a Symmetry® C18 column (particle size 3.5 μm, dimensions 4.6×100 mm; Waters) using 5 mM H3PO4/15% ethanol (w/w) as an eluent.
(§6) Homogentisic acid is detected electrochemically and quantified by measuring peak areas (Empower software; Waters).
Activities are normalized by setting the uninhibited enzyme activity to 100%. IC50 values are calculated using non-linear regression. […]
(§7) 5 μl of the cleared sample is analyzed on an Atlantis T3 column (particle size 3 μm, dimensions 3×50 mm; Waters) by isocratic elution using 90% 10 mM NaH2PO4 pH 2.2, 10% methanol (v/v).
(§8) HGA is detected electrochemically at 750 mV (mode: DC; polarity: positive) and quantified by integrating peak areas (Empower software; Waters).
Inhibitors are dissolved in DMSO (dimethylsulfoxide) to a concentration of 0.5 mM. […] IC50 values are calculated using non-linear regression. […]

[2] = biological target: T2, Arabidopsis HPPD variant Q293N (Arabidopsis thaliana, UniProt P93836, Q293N); assay: HPPD activity assay, mutant enzyme
T2 construct: His6 (N); made in house; host or cells: E. coli BL21 (DE3)
Experimental: as §1, §2, §3, §4
(§9) The sample is extracted on an Oasis® HLB cartridge 3 cc/60 mg (Waters) that was preequilibrated with 63 mM phosphoric acid. L-ascorbic acid is washed out with 3 ml of 63 mM phosphoric acid. Homogentisate is eluted with 1 ml of a 1:1 mixture of 63 mM phosphoric acid and methanol (w/w).
as §5, §6
(§10) Activities are normalized by setting the uninhibited enzyme activity to 100%. IC50 values are calculated using non-linear regression.
(§11) The assay mixture can contain 150 mM potassium phosphate buffer pH 7.0, 50 mM L-ascorbic acid, 100 μM Catalase (Sigma-Aldrich), 1 μM FeSO4 and 0.2 units of purified HPPD enzyme in a total volume of 505 μl. 1 unit is defined as the amount of enzyme that is required to produce 1 nmol of HGA per minute at 20° C.
(§12) After a preincubation of 30 min the reaction is started by adding 4-HPP to a final concentration of 0.05 mM. The reaction is allowed to proceed for 45 min at room temperature. The reaction is stopped by the addition of 50 μl of 4.5 M phosphoric acid. The sample is filtered using a […] pore size PVDF filtration device.
as §7, §8
(§13) Inhibitors are dissolved in DMSO (dimethylsulfoxide) to a concentration of 0.5 mM. From this stock solution serial five-fold dilutions are prepared in DMSO, which are used in the assay. The respective inhibitor solution accounts for 1% of the assay volume. Thus, final inhibitor concentrations range from 5 μM to 320 pM, respectively. Activities are normalized by setting the uninhibited enzyme activity to 100%. IC50 values are calculated using non-linear regression.
(§14) Purified, mutant HPPD enzymes are obtained by the methods described above. Dose response and kinetic measurements are carried out using the described HPPD activity assay. Apparent michaelis constants (Km) and maximal reaction velocities (Vmax) are calculated by non-linear regression with the software GraphPad Prism 5 (GraphPad Software, La Jolla, USA) using a substrate inhibition model. Apparent kcat values are calculated from Vmax assuming 100% purity of the enzyme preparation. Weighted means (by standard error) of Km and IC50 values are calculated from at least three independent experiments. The Cheng-Prusoff equation for competitive inhibition (Cheng, Y. C.; Prusoff, W. H. Biochem Pharmacol 1973, 22, 3099-3108) is used to calculate dissociation constants (Ki). Examples of the data obtained are depicted in Table 13.

[3] = biological target: T3, Arabidopsis HPPD variant Q293H (Arabidopsis thaliana, UniProt P93836, Q293H); assay: HPPD activity assay, mutant enzyme
T3 construct: His6 (N); made in house; host or cells: E. coli BL21 (DE3)
Experimental: as §1, §2, §3, §4, §9, §5, §6, §10, §11, §12, §7, §8, §13, §14

T3 sequence (P93836 whole entry Q293H): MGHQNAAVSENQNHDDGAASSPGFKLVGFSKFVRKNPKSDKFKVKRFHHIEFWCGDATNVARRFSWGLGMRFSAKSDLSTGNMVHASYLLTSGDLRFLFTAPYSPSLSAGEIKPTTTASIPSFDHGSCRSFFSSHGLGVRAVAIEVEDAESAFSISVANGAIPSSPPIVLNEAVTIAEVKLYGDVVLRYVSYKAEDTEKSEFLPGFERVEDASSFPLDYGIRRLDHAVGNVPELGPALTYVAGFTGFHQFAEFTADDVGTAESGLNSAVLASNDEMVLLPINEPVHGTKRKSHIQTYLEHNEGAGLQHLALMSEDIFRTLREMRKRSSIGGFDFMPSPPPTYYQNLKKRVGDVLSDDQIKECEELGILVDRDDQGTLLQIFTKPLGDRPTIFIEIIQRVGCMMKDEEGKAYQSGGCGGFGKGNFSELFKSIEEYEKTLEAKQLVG
T2 sequence (P93836 whole entry Q293N): as the sequence (P93836 whole entry Q293H) above, with H293N counted along it

| Compound | Ki [1] [nM] | Ki [2] [nM] | Ki [3] [nM] |
| --- | --- | --- | --- |
| CC1=NOC(c2c(Cl)ccc(C3=C(O)c4ncccc4N(CC(F)F)S3(=O)=O)c2Cl)C1 (stereo not drawn) [Inhibitor 1, 3-[2,4-dichloro-3-(3-methyl-4,5-dihydroisoxazol-5-yl)phenyl]-1-(2,2-difluoroethyl)-2,2-dioxo-pyrido[3,2-c]thiazin-4-ol] | 3 | 41 | 23 |
| Cc1c(C(=O)c2cnn(C)c2O)ccc(S(C)(=O)=O)c1C1=NOCC1 [Topramezone, reference compound] | 4 | 36 | 14 |
